Experiments:
[1] = test system: 5×FAD Tg mice; assay: Barnes maze and T maze in 5×FAD Tg mice; assay type: in vivo, mouse
Description: FIG. 6 (A-N). Intranasal delivery of wtTIDM, but not mTIDM, peptide inhibits neuronal apoptosis in vivo in the hippocampus and improves memory and learning in Tg mice. […] After 30 d of treatment, mice were sacrificed and hippocampal sections were double-labeled for TUNEL & NeuN (A). […] Hippocampal extracts of all groups of mice (n=4) were immunoblotted for cleaved caspase 3 (D). Actin was run as loading control. E) Bands were scanned and values (cleaved caspase 3/Actin) are presented as relative to non-Tg control. […] Protein levels of PSD-95. NR2A and GluR1 were monitored in hippocampal extracts by Western blot (F). Bands were scanned and values (G, PSD-95/Actin; H, NR2A/Actin; I, GluR1/Actin) are presented as relative to non-Tg control. […] Mice were tested for Barnes maze (J, latency; K, number of errors made) and T maze (L, number of positive turns; M, number of negative turns). Short-term memory was also monitored by novel object recognition test, which is represented by discrimination index (N). Eight mice (n=8) were used in each group and results were analyzed by one-way ANOVA.
Maze experiments were performed as described by us (52, 57). Briefly, for Barnes maze, mice were trained for 2 consecutive days followed by examination on day 3. […]

[2] = test system: NF-κB; assay: NF-κB activation by EMSA in primary microglia from WT mice; assay type: cell-based, mouse; conditions: peptide 1 h, 1 μM fibrillar Aβ1-42 for 1 h
Description: FIG. 16 (A-F). […] Primary microglia isolated from WT (A) and TLR2 (−/−) (B) mice were treated with different concentrations of wtTIDM peptide for 1 h followed by stimulation with 1 μM fibrillar Aβ1-42 under serum-free condition. After 1 h of stimulation, the activation of NF-κB was monitored by EMSA. WT (C & D) and TLR2 (−/−) (E & F) microglia were treated with different concentrations of wtTIDM and mTIDM peptides for 1 h followed by stimulation with 1 μM fibrillar Aβ1-42 under serum-free condition. After 18 h of stimulation, levels of TNFα (C & E) and IL-1β (D & F) were monitored in supernatants by ELISA (n=2 replicates/condition in 3 independent experiments). ap<0.001 vs control; bp<0.001 vs stimuli by two-sample t-tests.
Nuclear extracts were isolated and EMSA was carried out as described before (22, 23).

[3] = test system: mice with CIA; assay: Collagen-induced arthritis (CIA) in DBA/1J mice; assay type: in vivo, mouse; conditions: 1 mg/kg body wt/d i.p. from 29 dpi
Description: FIG. 7 (A-V). The wtTIDM, but not mTIDM, peptide protects mice from experimental allergic encephalomyelitis (EAE) and collagen-induced arthritis (CIA). […] Mice (n=6 per group in two independent experiments) were scored daily. […] On 22 dpi, general motor activities were monitored using the Ethovision XT 13.0 Open Field Activity System (Noldus) (B, heat-map images representing overall motor activities; C, distance travelled; D, rearing; E, velocity; F, acceleration) and rotorod (G). Foot print analysis (H, stride length; I, print length; J, sway length; K, toe spread) was also performed, L) CIA was induced in male DBA/1J mice by bovine type II collagen immunization and from 29 dpi, mice were treated with wtTIDM and mTIDM peptides (1 mg/kg body wt/d) via i.p. injection. Mice (n=6 per group in two independent experiments) were scored daily. […] On 60 dpi, general motor activities were monitored by Ethovision System (M, heat-map images representing overall motor activities; N, distance travelled; O, rearing; P, velocity), rotorod (Q) and grip strength (R). Foot print analysis (S, stride length; T, print length; U, sway length; V, toe spread) was also performed. Six mice (n=6 per group) were used in two independent experiments. ap<0.001 & bp<0.05 vs control; cp<0.001 & dp<0.05 vs EAE or CIA by two-sample t-tests.
FIG. 26 (A-D). Footprint analysis of mice with CIA after treatment with wtTIDM and mTIDM peptides. On the walking track, we applied white paper strips and obtained the footprints of mice of different groups (A, control; B, CIA; C, CIA+wtTIDM; D, CIA+mTIDM) on paper using black ink. A total of 30-40 steps for each group were determined. Four different footprint measurements (SL, PL, SWL, and TS) were calculated in centimeters from the recorded prints of mice. Six mice (n=6 per group) were used in two independent experiments.
Male DBA/1J mice (8-9 week old) were immunized intradermally at the base of the tail with 100 μg of bovine type II collagen emulsified in […] Freund's Adjuvant and M. tuberculosis H37RA. […]

For CC[C@H](C)[C@H](NC(=O)[C@H](CCCCN)NC(=O)[C@@H](NC(=O)[C@H](CCC(N)=O)NC(=O)[C@H](CCCNC(=N)N)NC(=O)[C@@H](N)CC(=O)O)[C@@H](C)CC)C(=O)N[C@@H](Cc1c[nH]c2ccccc12)C(=O)N[C@@H](Cc1ccccc1)C(=O)N[C@@H](CCC(N)=O)C(=O)N[C@@H](CC(N)=O)C(=O)N[C@@H](CCCNC(=N)N)C(=O)N[C@@H](CCCNC(=N)N)C(=O)N[C@@H](CCSC)C(=O)N[C@@H](CCCCN)C(=O)N[C@@H](Cc1c[nH]c2ccccc12)C(=O)N[C@@H](CCCCN)C(=O)N[C@@H](CCCCN)C(=O)N1CCC[C@H]1C(=O)NCC(=O)N[C@@H](C)C(=O)N[C@@H](Cc1c[nH]cn1)C(=O)N[C@@H](CCC(N)=O)C(=O)N[C@@H](CCCCN)C(=O)O [wtTIDM, drqikiwfqnrrmkwkkPGAHQK], the “memory functions in Barnes maze (latency, number of errors)” value ([1]; 0.1 mg/kg body wt/2 d intranasal, 30 d) was “significantly improved”, the “spatial learning and memory in Tg mice” value ([1]; summary statement) was “improved” and the “inhibition of fibrillar Aβ1-42-induced activation of NF-κB in WT primary microglia” value [2] was “inhibited”. The “clinical symptoms of CIA” value [3] was “decreased”, the “footprint behavior in CIA mice” value ([3]; 60 dpi) was “improved” and the “locomotor activities in CIA mice” value ([3]; 60 dpi) was “enhanced”.

From patent US12251422B2, “Compositions and methods for treating neurological and other disorders” (Rush University Medical Center, priority 2018, dated 2025)
